Experimental data from patent US20110092476A1, “Bicycloheteroaryl compounds as P2X7 modulators and uses thereof” (Renovis, Inc., priority 2006, published 2011).
Where two headings read alike, the source gives them in different places. Values belong to the compound of their own block, whether it stands above or below them.

Target: T1, P2X7 receptor (Homo sapiens, UniProt Q99572)
T1 construct: host or cells: THP-1 cells differentiated with LPS and IFN-γ
T1 sequence (Q99572 1-595): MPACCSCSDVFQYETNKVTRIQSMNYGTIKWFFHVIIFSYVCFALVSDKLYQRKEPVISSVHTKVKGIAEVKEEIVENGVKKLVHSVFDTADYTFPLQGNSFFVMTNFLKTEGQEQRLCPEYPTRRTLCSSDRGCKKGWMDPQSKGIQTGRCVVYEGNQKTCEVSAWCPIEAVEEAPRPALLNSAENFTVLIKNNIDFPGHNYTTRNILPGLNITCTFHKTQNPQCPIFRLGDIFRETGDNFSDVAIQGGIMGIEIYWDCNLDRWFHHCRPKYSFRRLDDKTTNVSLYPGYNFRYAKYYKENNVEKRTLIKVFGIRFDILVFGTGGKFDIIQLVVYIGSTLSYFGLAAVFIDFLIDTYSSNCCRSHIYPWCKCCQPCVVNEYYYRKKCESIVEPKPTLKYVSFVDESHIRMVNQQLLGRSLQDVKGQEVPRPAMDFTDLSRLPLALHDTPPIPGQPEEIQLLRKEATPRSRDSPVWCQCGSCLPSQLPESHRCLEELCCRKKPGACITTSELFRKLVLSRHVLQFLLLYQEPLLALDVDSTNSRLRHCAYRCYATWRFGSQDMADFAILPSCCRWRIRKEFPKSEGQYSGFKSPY
Assay: IL-1β release assay in differentiated THP-1 cells stimulated with BzATP (Example 9)
Format: cell-based
Details: BzATP 250 uM; for inhibition at 0.1 µM / inhibition at 0.3 µM: differentiated THP-1 cells, read-out: IL-1β % Inhib. @ 0.3 or 0.1 uM
How it was run: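 IC50 derived by four-parameter logistic fit of percent inhibition of IL-1β release (ELISA, background-adjusted). Release triggered by 45 min BzATP at 250 uM final after 30 min compound pretreatment of THP-1 cells previously differentiated 16 h (LPS, IFN-γ, 100 ng/mL each) and re-primed 2 h with LPS.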

Compound: CCOc1ccc(C(=O)Nc2cccc3c(=O)n(CC(C)O)ccc23)cc1 (centres unmarked) [Compound 145]
- inhibition at 0.1 µM (0.1 μM compound (symbols *)): 0 to 25%

Compound: Cc1cccc(C(=O)Nc2cccc3c(=O)n(C(C)CO)ccc23)c1C (centres unmarked) [Compound 98]
- inhibition at 0.1 µM (0.1 μM compound (symbols *)): 0 to 25%

Compound: O=C(CCCc1ccccc1)Nc1cccc2c(=O)n(CC3(O)CCCCC3)ccc12 [Compound 36]
- inhibition at 0.3 µM (0.3 μM compound (symbols +)): 26 to 50%

Compound: COc1ccc(C(=O)Nc2cccc3c(=O)n(CC(C)O)ccc23)cc1C (centres unmarked) [Compound 183]
- inhibition at 0.1 µM (0.1 μM compound (symbols *)): 26 to 50%

Compound: O=C(CCc1ccccc1)Nc1cccc2c(=O)n(CCO)ccc12 [Compound 3]
- inhibition at 0.3 µM (0.3 μM compound (symbols +)): 51 to 75%

Compound: CC(O)Cn1ccc2c(NC(=O)C(C)c3ccccc3)cccc2c1=O (centres unmarked) [Compound 148]
- inhibition at 0.1 µM (0.1 μM compound (symbols *)): 0 to 25%

Compound: Cc1cccc(C(=O)Nc2cccc3c(=O)n(CC4(O)CCCCC4)ccc23)c1 [Compound 20]
- inhibition at 0.1 µM (0.1 μM compound (symbols *)): 0 to 25%

Compound: O=C(Cc1cc(C(F)(F)F)cc(C(F)(F)F)c1)Nc1cccc2c(=O)n(CCO)ccc12 [Compound 64]
- inhibition at 0.3 µM (0.3 μM compound (symbols +)): 51 to 75%

Compound: CC(C)(O)Cn1ccc2c(NC(=O)Cc3ccc4c(c3)OCO4)cccc2c1=O [Compound 218]
- inhibition at 0.1 µM (0.1 μM compound, "*" symbols): 0 to 25%

Compound: COc1cc(CC(=O)Nc2cccc3c(=O)n(CC(C)O)ccc23)cc(OC)c1 (centres unmarked) [Compound 166]
- inhibition at 0.1 µM (0.1 μM compound (symbols *)): 0 to 25%

Compound: COc1ccc(C(=O)Nc2cccc3c(=O)n(CC4(O)CCCCC4)ccc23)c(C)c1 [Compound 83]
- inhibition at 0.1 µM (0.1 μM compound (symbols *)): 0 to 25%

Compound: COc1ccccc1CCC(=O)Nc1cccc2c(=O)n(CC(C)O)ccc12 (centres unmarked) [Compound 149]
- inhibition at 0.1 µM (0.1 μM compound (symbols *)): 0 to 25%

Compound: CC(CO)n1ccc2c(NC(=O)c3ccc(Cl)cc3Cl)cccc2c1=O (centres unmarked) [Compound 96]
- inhibition at 0.1 µM (0.1 μM compound (symbols *)): 0 to 25%

Compound: CC(C)(C)c1ccc(C(=O)Nc2cccc3c(=O)n(CC4(O)CCCCC4)ccc23)cc1 [Compound 23]
- inhibition at 0.1 µM (0.1 μM compound (symbols *)): 0 to 25%

Compound: O=C(CCc1ccc(Cl)cc1)Nc1cccc2c(=O)n(CC3(O)CCCCC3)ccc12 [Compound 49]
- inhibition at 0.3 µM (0.3 μM compound (symbols +)): 0 to 25%

Continued, values first:

- inhibition at 0.3 µM (0.3 μM compound, "+" symbols): > 76%
Compound: C[C@H](C(N)=O)n1ccc2c(NC(=O)Cc3ccc(F)c(F)c3F)cccc2c1=O [Compound 379]

- inhibition at 0.3 µM (0.3 μM compound, "+" symbols): > 76%
Compound: CC(C)C[C@H](CO)n1ccc2c(NC(=O)[C@@H](C)c3ccc(Cl)cc3)cccc2c1=O [Compound 271]

- inhibition at 0.3 µM (0.3 μM compound, "+" symbols): 51 to 75%
Compound: C[C@H](C(=O)Nc1cccc2c(=O)n([C@H](C)C(=O)NC3CC3)ccc12)c1ccc(Cl)cc1 [Compound 308, (R)-2-{5-[(S)-2-(4-Chloro-phenyl)-propionylamino]-1-oxo-1H-isoquinolin-2-yl}-N-cyclopropyl-propionamide]

- inhibition at 0.3 µM (0.3 μM compound, "+" symbols): 51 to 75%
Compound: CC(C(=O)Nc1cccc2c(=O)n([C@H](CO)C(N)=O)ccc12)c1ccc(Cl)cc1 (stereo partly drawn) [Compound 252, (R)-2-{5-[2-(4-Chloro-phenyl)-propionylamino]-1-oxo-1H-isoquinolin-2-yl}-3-hydroxy-propionamide]

- inhibition at 0.3 µM (0.3 μM compound, "+" symbols): 0 to 25%
Compound: O=C(Cc1cccc(C(F)(F)F)c1F)Nc1c(NCCO)ccc2c(=O)n(CCO)ccc12 [Compound 385, 2-(2-Fluoro-3-trifluoromethyl-phenyl)-N-[2-(2-hydroxy-ethyl)-6-(2-hydroxy-ethylamino)-1-oxo-1,2-dihydro-isoquinolin-5-yl]-acetamide]

- inhibition at 0.3 µM (0.3 μM compound, "+" symbols): > 76%
Compound: CC(C(=O)Nc1cccc2c(=O)n([C@@H](C)C(N)=O)ccc12)c1ccc(Cl)cc1 (some centres unmarked) [Compound 240]

- inhibition at 0.3 µM (0.3 μM compound, "+" symbols): 51 to 75%
Compound: NCC(CCl)Cn1ccc2c(NC(=O)Cc3ccc(Cl)c(Cl)c3)cccc2c1=O (centres unmarked) [Compound 259]

- inhibition at 0.3 µM (0.3 μM compound, "+" symbols): > 76%
- IC50 (THP-1 cells, IL-1β by ELISA): 0.0107 µM
Compound: Cc1ccc2c(=O)n(CCO)ccc2c1NC(=O)Cc1cccc(C(F)(F)F)c1F [Compound 396]

- inhibition at 0.3 µM (0.3 μM compound, "+" symbols): > 76%
Compound: C[C@H](C(N)=O)n1ccc2c(NC(=O)Cc3ccc(F)c(F)c3)cccc2c1=O [Compound 303]

- inhibition at 0.3 µM (0.3 μM compound, "+" symbols): 26 to 50%
Compound: NC(=O)[C@H](CO)n1ccc2c(NC(=O)Cc3ccc(Cl)c(Cl)c3)cccc2c1=O [Compound 253]
